Assay results taken from patent US11976083B2, “Inhibitors of peptidylarginine deiminases” (Gilead Sciences, Inc., priority 2020, dated 2024).

Target: T1, human PAD4 (Homo sapiens, UniProt Q9UM07)
T1 construct: human PAD4 (NM_012387), A2-P663, was PCR amplified; His-SUMO (N, cleaved yes); made in house; host or cells: E. coli BL21(DE3)
Experiment: In vitro PAD4 BAEE biochemical assay
Settings: BAEE substrate 3 mM, 5 nM PAD4, 2 mM calcium chloride; geometric mean of multiple experiments
Method in brief: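 Recombinant PAD4 (5 nM final) with 2 mM CaCl2 was preincubated with compound for 30 min at 25 °C in MOPS pH 7.6 buffer with DTT, then reacted with 3 mM BAEE for 2 h at 25 °C. Released ammonia was detected fluorimetrically with o-phthalaldehyde/DTT; IC50 from four-parameter fit, geometric mean of experiments.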

T1 sequence (Q9UM07 2-663): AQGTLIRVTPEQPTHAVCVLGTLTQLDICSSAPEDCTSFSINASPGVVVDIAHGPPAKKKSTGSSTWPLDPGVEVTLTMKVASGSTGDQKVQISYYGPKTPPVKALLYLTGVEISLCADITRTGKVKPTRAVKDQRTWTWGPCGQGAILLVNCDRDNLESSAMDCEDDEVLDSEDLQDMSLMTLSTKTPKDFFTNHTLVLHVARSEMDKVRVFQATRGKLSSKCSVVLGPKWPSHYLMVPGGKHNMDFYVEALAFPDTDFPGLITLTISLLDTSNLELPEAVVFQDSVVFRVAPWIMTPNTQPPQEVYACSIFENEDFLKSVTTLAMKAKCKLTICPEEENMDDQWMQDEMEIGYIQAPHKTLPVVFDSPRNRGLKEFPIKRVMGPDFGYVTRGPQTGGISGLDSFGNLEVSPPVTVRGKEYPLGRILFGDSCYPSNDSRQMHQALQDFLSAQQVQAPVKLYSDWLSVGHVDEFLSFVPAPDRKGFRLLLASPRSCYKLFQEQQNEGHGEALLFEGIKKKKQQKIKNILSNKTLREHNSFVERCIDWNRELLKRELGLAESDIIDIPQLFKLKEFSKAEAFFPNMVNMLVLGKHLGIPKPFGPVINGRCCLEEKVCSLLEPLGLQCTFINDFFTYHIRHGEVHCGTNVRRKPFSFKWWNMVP

Structure (SMILES)	IC50
COc1cc(C(=O)N2CC[C@H]3CCN[C@H]3C2)cc2nc(-c3cc4ccc5nc4n3CCCCC[C@@H]3C[C@H]3C(=O)N[C@@H]5C)n(C)c12 [Example 531, (2~{R},5~{R},7~{R})-14-[5-[(3~{a}-{R},7~ {a}~{R})-1,2,3,3~ {a},4,5,7,7~{a}-octahydropyrrolo[2,3-c]pyridine-6-carbonyl]-7-methoxy-1-methyl-benzimidazol-2-yl]-2-methyl-3,13,19-triazatetracyclo[11.5.2.0^ {5,7}.0^{16,20}]icosa-1(19),14,16(20),17-tetraen-4-one]	36 nM
COc1cc(C(=O)N2CC[C@@H]3CCN[C@@H]3C2)cc2nc(-c3cc4ccc5nc4n3CCCCC[C@@H]3C[C@H]3C(=O)N[C@@H]5C)n(C)c12 [Example 532, (2~{R},5~{R},7~{R})-14-[5-[(3~{a}~{S}, 7~{a}~{S})-1,2,3,3~ {a},4,5,7,7~{a}-octahydropyrrolo[2,3-c]pyridine-6-carbonyl]-7-methoxy-1-methyl-benzimidazol-2-yl]-2-methyl-3,13,19-triazatetracyclo[11.5.2.0^ {5,7}.0^{16,20}]icosa-1 (19),14,16(20),17-tetraen-4-one]	239 nM
COc1cc(C(=O)N2CC[C@@H](CO)[C@@H](N)C2)cc2nc(-c3cc4ccc5nc4n3CCCCCCC(C)(C)C(=O)N[C@@H]5C)n(C)c12 [Example 533, (11~{R})-17-[5-[(3~ {R},4~{R})-3-amino-4-(hydroxymethyl)piperidine-1-carbonyl]-7-methoxy-1-methyl-benzimidazol-2-yl]-8,8,11-trimethyl-1,10,19-triazatricyclo [10.5.2.0^{15,18}]nonadeca-12(19),13,15(18),16-tetraen-9-one]	398 nM
COc1cc(C(=O)N2[C@H]3CC[C@@H]2[C@H](N)C3)cc2nc(-c3cc4ccc5nc4n3CC(F)(F)CCCCCC(=O)N[C@@H]5C)n(C)c12 [Example 534, (11~{R})-17-[5-[(1~ {R},2~{R},4~{S})-2-amino-7-azabicyclo[2.2.1]heptane-7-carbonyl]-7-methoxy-1-methyl-benzimidazol-2-yl]-3,3-difluoro-11-methyl-1,10,19-triazatricyclo[10.5.2.0^ {15,18}]nonadeca-12(19),13,15(18),16-tetraen-9-one]	56 nM
COc1cc(C(=O)N2C[C@@H]3C[C@@H]3[C@@H](N)C2)cc2nc(-c3cc4ccc5nc4n3CCCCCCC(C)(C)C(=O)N[C@@H]5C)n(C)c12 [Example 535, (11~{R})-17-[5-[(1~ {R},5~{R},6~{S})-5-amino-3-azabicyclo[4.1.0]heptane-3-carbonyl]-7-methoxy-1-methyl-benzimidazol-2-yl]-8,8,11-trimethyl-1,10,19-triazatricyclo[10.5.2.0^ {15,18}]nonadeca-12(19),13,15(18),16-tetraen-9-one]	384 nM
COc1cc(C(=O)N2C[C@H](N)C[C@H](O)C2)cc2nc(-c3cc4ccc5nc4n3CCCCCCC(C)(C)C(=O)N[C@@H]5C)n(C)c12 [Example 536, (11~{R})-17-[5-[(3~{R},5~{S})-3-amino-5-hydroxy-piperidine-1-carbonyl]-7-methoxy-1-methyl-benzimidazol-2-yl]-8,8,11-trimethyl-1,10,19-triazatricyclo[10.5.2.0^ {15,18}]nonadeca-12(19), 13,15(18),16-tetraen-9-one]	137 nM
Cc1cc2c(cc1C(=O)N[C@H]1CNCC[C@@H]1F)nc(-c1cc3ccc4nc3n1CCCCCCC(C)(C)C(=O)N[C@@H]4C)n2C [Example 537, ~{N}-[(3~{S},4~ {S})-4-fluoro-3-piperidyl]-1,6-dimethyl-2-[(11~{R})-8,8,11-trimethyl-9-oxo-1,10,19-triazatricyclo [10.5.2.0^{15,18}]nonadeca-12(19),13,15(18), 16-tetraen-17-yl]benzimidazole-5-carboxamide]	87 nM
C[C@H]1NC(=O)C(C)(C)CCCCCCn2c(-c3nc4cc(C(=O)N[C@H]5CNCC[C@@H]5F)c(F)c(F)c4n3C)cc3ccc1nc32 [Example 538, 6,7-difluoro-~{N}-[(3~ {S},4~{S})-4-fluoro-3-piperidyl]-1-methyl-2-[(11~{R})-8,8,11-trimethyl-9-oxo-1,10,19-triazatricyclo[10.5.2.0^ {15,18}]nonadeca-12(19),13,15(18),16-tetraen-17-yl]benzimidazole-5-carboxamide]	90 nM
C[C@H]1NC(=O)[C@H]2C[C@@H]2CCCCCn2c(-c3nc4cc(C(=O)N[C@H]5CNCC[C@@H]5F)c(F)cc4n3C3CC3)cc3ccc1nc32 [Example 539, 1-cyclopropyl-6-fluoro-~{N}-[(3~{S},4~{S})-4-fluoro-3-piperidyl]-2-[(2~{R},5~{S},7~ {S})-2-methyl-4-oxo-3,13,19-triazatetracyclo [11.5.2.0^{5,7}.0^{16,20}]icosa-1(19),14,16 (20),17-tetraen-14-yl]benzimidazole-5-carboxamide]	175 nM
C[C@H]1NC(=O)C(C)(C)OCCCCCn2c(-c3nc4cc(C(=O)N[C@H]5CNCC[C@@H]5F)c(F)cc4n3C3CC3)cc3ccc1nc32 [Example 540, 1-cyclopropyl-6-fluoro-~{N}-[(3~{S},4~{S})-4-fluoro-3-piperidyl]-2-[(11~{R})-8,8,11-trimethyl-9-oxo-7-oxa-1,10,19-triazatricyclo[10.5.2.0^ {15,18}]nonadeca-12(19),13,15(18),16-tetraen-17-yl] benzimidazole-5-carboxamide]	90 nM
C[C@H]1NC(=O)C(C)(C)CCCCCCn2c(-c3nc4cc(C(=O)N[C@H]5CNCC[C@@H]5F)c(Cl)cc4n3C)cc3ccc1nc32 [Example 541, 6-chloro-~{N}-[(3~ {S),4~{S})-4-fluoro-3-piperidyl]-1-methyl-2-[(11~{R})-8,8,11-trimethyl-9-oxo-1,10,19-triazatricyclo[10.5.2.0^ {15,18}]nonadeca-12(19), 13,15(18),16-tetraen-17-yl]benzimidazole-5-carboxamide]	123 nM
COc1cc(C(=O)N2C[C@@H]3C[C@@H]3[C@@H](N)C2)cc2nc(-c3cc4ccc5nc4n3CCCCCCC(C)(C)C(=O)N[C@@H]5C)n(C)c12 [Example 542, (11~{R})-17-[5-[(1~ {R},5~{R},6~{S})-5-amino-3-azabicyclo [4.1.0]heptane-3-carbonyl]-7-methoxy-1-methyl-benzimidazol-2-yl]-8,8,11-trimethyl-1,10,19-triazatricyclo [10.5.2.0^{15,18}]nonadeca-12(19),13,15(18), 16-tetraen-9-one]	479 nM
COc1cc(C(=O)N2C[C@H]3C[C@H]3[C@H](N)C2)cc2nc(-c3cc4ccc5nc4n3CCCCCCC(C)(C)C(=O)N[C@@H]5C)n(C)c12 [Example 543, (11~{R})-17-[5-[(1~ {S},5~{S},6~{R})-5-amino-3-azabicyclo [4.1.0]heptane-3-carbonyl]-7-methoxy-1-methyl-benzimidazol-2-yl]-8,8,11-trimethyl-1,10,19-triazatricyclo [10.5.2.0^{15,18}]nonadeca-12(19),13,15(18), 16-tetraen-9-one]	405 nM
C[C@H]1NC(=O)[C@]2(C)C[C@H]2CCCCCn2c(-c3nc4cc(C(=O)N[C@H]5CNCC[C@@H]5F)c(F)cc4n3C3CC3)cc3ccc1nc32 [Example 544, 1-cyclopropyl-2-[(2~ {R},5~{R},7~{R})-2,5-dimethyl-4-oxo-3,13,19-triazatetracyclo [11.5.2.0^{5,7}.0^{16,20}]icosa-1(19),14,16(20), 17-tetraen-14-yl]-6-fluoro-~ {N}-[(3~{S},4~{S})-4-fluoro-3-piperidyl]benzimidazole-5-carboxamide]	40 nM
